According to BindingDB's records for doi:10.7270/Q2KH0KWR (Burnham Center For Chemical Genomics, 2012):

Target: T1, Tyrosine-protein phosphatase non-receptor type 5 (Homo sapiens, UniProt P54829)
T1 sequence (P54829 whole entry): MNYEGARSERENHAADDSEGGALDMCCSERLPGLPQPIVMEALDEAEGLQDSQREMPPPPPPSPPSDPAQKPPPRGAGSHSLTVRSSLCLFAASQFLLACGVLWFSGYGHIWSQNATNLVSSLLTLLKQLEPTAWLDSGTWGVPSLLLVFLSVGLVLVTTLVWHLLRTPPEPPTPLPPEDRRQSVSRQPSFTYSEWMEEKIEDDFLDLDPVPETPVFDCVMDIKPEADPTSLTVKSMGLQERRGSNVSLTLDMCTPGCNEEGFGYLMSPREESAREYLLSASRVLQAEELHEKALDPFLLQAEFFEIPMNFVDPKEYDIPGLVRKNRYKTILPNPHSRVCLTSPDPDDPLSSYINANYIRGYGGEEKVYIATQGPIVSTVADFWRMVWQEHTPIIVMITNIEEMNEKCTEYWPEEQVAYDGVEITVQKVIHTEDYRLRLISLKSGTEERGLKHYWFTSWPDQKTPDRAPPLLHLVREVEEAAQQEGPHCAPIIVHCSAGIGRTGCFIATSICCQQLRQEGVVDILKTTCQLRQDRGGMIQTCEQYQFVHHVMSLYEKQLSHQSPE
Assay: STEP phosphatase inhibitor potency, dose response, orthogonal assay for STEP inhibitor project, biochemical, colorimetric absorbance (AID 624207)

[1] = inactive by the depositor's call

IC50 [1] [µM]	IC50 [µM]	Compound
29.7		COc1ccccc1NS(=O)(=O)c1cc(NC(=S)NCCN2CCOCC2)ccc1N1CCOCC1 [MLS000409155]
	72.8	S=C1N=C2C(=C3SCCS3)CCCC2C(c2ccccc2)N1 (stereo unspecified) [MLS000516376]
	> 80	CCOc1ccc(C(=O)Nc2cc(-c3nc4ccccc4[nH]3)ccc2Cl)cc1[N+](=O)[O-] [MLS000574482]
25.5		O=C(N/N=C/c1ccc(OC(=O)c2cccs2)cc1)c1cccc(F)c1 [MLS000576933]
57		OCCN1CCN(C(=S)c2ccc(Br)cc2)CC1 [MLS000577024]
	> 80	COCCN(C(=S)Nc1c(C)cc(C)cc1C)C(C)c1cccnc1 (stereo unspecified) [MLS000584539]
	15.7	O=C(N/N=C/c1ccc(Cl)c([N+](=O)[O-])c1)c1ccc2c(c1)OCCO2 [MLS000587937]
25.5		CCN1CCN(C(=S)c2ccc(Cl)cc2)CC1 [MLS000594090]
	> 80	NS(=O)(=O)c1ccc(N/C(S)=N\CCc2ccccc2)cc1 [MLS000621468]
	33.8	CCN1CCN(C(=S)c2ccc(O)cc2)CC1 [MLS000621546]
	12.6	CN1CCN(C(=S)C(=O)Nc2ccc(Br)cc2)CC1 [MLS000665240]
56.9		CN(C)c1ccc(C(=S)N2CCN(Cc3ccccc3)CC2)cc1 [MLS000679877]
	13.3	COC(=O)Nc1sc2c(c1C(N)=O)CCC(C)C2 (stereo unspecified) [MLS000683996]
	> 80	O=C(N/N=C/c1coc2ccccc2c1=O)c1cc2ccccc2o1 [MLS000700471]
	20	O=C(COc1ccc(/C=N/NC(=O)c2ccc(O)cc2)cc1)Nc1cccc([N+](=O)[O-])c1 [MLS000714465]
	> 80	COc1ccc(NC(=S)N(CCCN2CCC(C)CC2)Cc2cccs2)cc1Cl [MLS000729725]
	> 80	COc1ccc2cc3c(N)nn(C(=O)c4cccc(F)c4)c3nc2c1 [MLS000731294]
40		N#CNc1nc(O)cc(=O)[nH]1 [MLS000737363]
42		Cc1cc(C)c2nc(-c3ccccn3)cc(C(=O)Nc3ccc(S(=O)(=O)Nc4onc(C)c4C)cc3)c2c1 [MLS000862518]
	7.05	O=C(Nc1cc([N+](=O)[O-])ccc1O)c1cccc(C(=O)Nc2cc([N+](=O)[O-])ccc2O)c1 [MLS001008494]
	> 80	CC(=O)N1CCOc2ccc(S(=O)(=O)NCc3ccc(F)cc3)cc21 [MLS001117284]
	15.7	CC(C(=O)Nc1ccc(O)cc1C(=O)O)N1C(=O)/C(=C\c2cccs2)SC1=S (stereo unspecified) [MLS001157883]
25.2		CC(C)(C)C(=O)Nc1ccc(C(=O)Nc2cccc(Oc3ccc(C(=O)O)c(C(=O)O)c3)c2)cc1 [MLS001181252]
76		NS(=O)(=O)c1ccc(NC(=S)N2CCC(Cc3ccccc3)CC2)cc1 [MLS001196239]
23.8		Cc1c(CC(=O)O)c(=O)oc2c(C)c(OCc3ccc(F)cc3Cl)ccc12 [MLS001213411]

IC50 [1] [µM]	IC50 [µM]	Compound
32.1		Cc1c(CC(=O)NCCCCCC(=O)O)c(=O)oc2c(C)c3oc4c(c3cc12)CCCC4 [MLS001214831]
28.5		CCOc1ccc(/C=N/NC(=O)c2cc3c(OC)cccc3[nH]2)cc1 [MLS001216500]
29.4		CC(=NNC(=O)c1ccccc1O)c1ccc(NC(=O)Cc2ccccc2)cc1 [MLS001224813]
	> 80	COc1ccc(-c2ccc(NC(=O)c3ccc(Br)o3)cc2)nn1 [MLS001236653]
	4.99	CSc1ccc(CN=Nc2ccc(S(=O)(=O)Nc3ccccc3C(=O)O)cc2[N+](=O)[O-])cc1 [MLS002245633]
64.8		Sc1ncnc2c1ncn2-c1ccc(Cl)cc1 [MLS002638664]
	15.8	O=C(N/N=C/C1C=CC=CC1=O)c1cccc([N+](=O)[O-])c1 (stereo unspecified) [MLS002667988]
	> 80	O=C(O)Cc1cccc(O)c(=O)c1C(=O)O [MLS002703575]
	> 80	O=C(Nc1cccc2c(=O)[nH][nH]c(=O)c12)c1ccc([N+](=O)[O-])cc1 [MLS003171605]
41.3		S=C(c1cn(CCOc2ccccc2)c2ccccc12)N1CCCC1 [MLS-0109562.0001]
	> 80	CCOC(=O)c1sc2nc3c(SCC(=O)O)cc(C(=O)c4ccccc4O)cn3c(=O)c2c1C [MLS-0266851.0001]
	> 80	NC(=NOC(=O)c1cccc2ccccc12)c1cccc([N+](=O)[O-])c1 [N'-(1-naphthoyloxy)-3-nitrobenzenecarboximidamide]
34.4		COc1cc(Cl)ccc1N=C(S)N(CCCN1CCOCC1)Cc1cn(C)c2ccccc12 [N'-(4-chloro-2-methoxyphenyl)-N-[(1-methyl-1H-indol-3-yl)methyl]-N-(3-morpholin-4-ylpropyl)thiourea]
36.9		COc1ccc(Cl)cc1N=C(S)N(CCCN1CCOCC1)Cc1cn(C)c2ccccc12 [N'-(5-chloro-2-methoxyphenyl)-N-[(1-methyl-1H-indol-3-yl)methyl]-N-(3-morpholin-4-ylpropyl)thiourea]
	23.3	COc1cc(Cl)cc(C=NNC(=O)c2ccc3c(c2)OCO3)c1O [N'-[(E)-(3-chloro-5-methoxy-6-oxo-1-cyclohexa-2,4-dienylidene)methyl]-1,3-benzodioxole-5-carbohydrazide]
78.3		COc1cccc(-c2cc(C(=O)Nc3nc4ccccc4s3)c3ccccc3n2)c1 [N-(1,3-benzothiazol-2-yl)-2-(3-methoxyphenyl)-4-quinolinecarboxamide]
40.3		COc1ccc(NC(=S)N2CCC(N(C)CC3CCCO3)CC2)cc1Cl (stereo unspecified) [N-(3-chloranyl-4-methoxy-phenyl)-4-[methyl(oxolan-2-ylmethyl)amino]piperidine-1-carbothioamide]
	> 80	Cn1cc(CC(=O)Nc2cccc(C#N)c2)c2ccccc21 [N-(3-cyanophenyl)-2-(1-methyl-1H-indol-3-yl)acetamide]
53.8		CCCCC(=O)Nc1ccc(C(=O)NNC(=O)c2ccc(C)c(Br)c2)cc1 [N-(4-{[2-(3-bromo-4-methylbenzoyl)hydrazino]carbonyl}phenyl)pentanamide]
	> 80	CCOc1ccc(CCNC(=O)CS(=O)(=O)Cc2nc(-c3ccc(OC)cc3)oc2C)cc1 [N-[2-(4-ethoxyphenyl)ethyl]-2-[[2-(4-methoxyphenyl)-5-methyl-1,3-oxazol-4-yl]methylsulfonyl]ethanamide]
	6.95	COc1ccccc1NS(=O)(=O)c1cc(NC(=O)c2sccc2C)ccc1N1CCCC1 [N-[3-[(2-methoxyphenyl)sulfamoyl]-4-(1-pyrrolidinyl)phenyl]-3-methyl-2-thiophenecarboxamide]
41.5		CN1CCN(C(S)=Nc2ccc(S(N)(=O)=O)cc2)CC1 [N-[4-(aminosulfonyl)phenyl]-4-methyl-1-piperazinecarbothioamide]
	> 80	CCCCN(CC)Cc1ccc(CN=C(S)Nc2c(C)cc(C)cc2C)o1 [N-[(5-{[butyl(ethyl)amino]methyl}-2-furyl)methyl]-N'-mesitylthiourea]
22.9		O=C(N/N=C/c1cccc(Br)c1)c1ccc(N2CCCC2=O)cc1 [N-[(E)-(3-bromophenyl)methylideneamino]-4-(2-oxidanylidenepyrrolidin-1-yl)benzamide]
	14.9	O=C(N/N=C/c1ccc(Br)s1)c1cccc([N+](=O)[O-])c1 [N-[(E)-(5-bromanylthiophen-2-yl)methylideneamino]-3-nitro-benzamide]

Compound	IC50 [1] [µM]	IC50 [µM]
CCN(CC)P(=O)(NC(=O)C(Cl)(Cl)Cl)N(CC)CC [MLS000564159]		77.5
